Assay results reported in patent US9765107B2, “Cyclic phosphonate substituted nucleoside derivatives and methods of use thereof for the treatment of viral diseases” (Merck Sharp & Dohme Corp., priority 2013, dated 2017).

Tests used:
[1] = Replicon activity assay (replicon RNA by real-time RT-PCR); type: cell-based, HCV; details: Hepatitis C virus, 72 h; replicon RNA level, three days post-dosing, 10% fetal bovine serum; read-out: Replicon (1a) EC50
[2] = system: replicon cells; assay: Cytotoxicity MTS assay in replicon cells; type: cell-based; details: CC50, MTS assay, three days post dosing
Protocol: To measure cell-based anti-HCV activity of the compounds of the present invention, replicon cells (1b-Con1) are seeded at 5000 cells/well in 96-well plates one day prior to treatment with a compound of the invention. Various concentrations of a test compound of the invention in DMSO are then added to the replicon cells, with the final concentration of DMSO at 0.5% and fetal bovine serum at 10% in the assay media. Cells are harvested three days post-dosing and the replicon RNA level is determined using real-time RT-PCR (Taqman assay) with GAPDH RNA as endogenous control. EC50 values are calculated from experiments with 10 serial twofold dilutions of the inhibitor in triplicate. To measure cytotoxicity in replicon cells of an inhibitor, an MTS assay is performed according to the manufacturer's protocol for CellTiter 96 Aqueous One Solution Cell Proliferation Assay (Promega, Cat #G3580) three days post dosing on cells treated identically as in replicon activity assays. CC50 is the concentration of inhibitor that yields 50% inhibition compared to vehicle-treated cells. Cytotoxicity in other types of cells can be measured using the same MTS protocol.

Row | Structure (SMILES) | EC50 [1] | Cytotoxicity [2]
1 | CC(C)O[P@@]1(=O)OC[C@H]2O[C@@H](n3ccc(=O)[nH]c3=O)[C@](C)(N)C2O1 (stereo partly drawn) | > 100 µM | >100 µM
2 | C[C@@]1(N)[C@@H]2O[P@@](=O)(OCc3ccccc3)OC[C@H]2O[C@H]1n1ccc(=O)[nH]c1=O | 56.2 µM | >100 µM
3 | C[C@@]1(N)[C@@H]2O[P@@](=O)(OC3CCCC3)OC[C@H]2O[C@H]1n1ccc(=O)[nH]c1=O | > 100 µM | >100 µM
4 | CCC(CC)CO[P@@]1(=O)OC[C@H]2O[C@@H](n3ccc(=O)[nH]c3=O)[C@](C)(N)[C@@H]2O1 | 43.2 µM | >100 µM
5 | CCCC(CCC)CO[P@@]1(=O)OC[C@H]2O[C@@H](n3ccc(=O)[nH]c3=O)[C@](C)(N)[C@@H]2O1 | > 100 µM | >100 µM
6 | C[C@@]1(N)C2O[P@@](=O)(OC3CCC3)OC[C@H]2O[C@H]1n1ccc(=O)[nH]c1=O (stereo partly drawn) | > 100 µM | >100 µM
